Read-outs that look alike come from different tables or passages of the source.
Key:
[1] = test system: clinical A. baumannii isolate PR396 (OXA-82, ADC-33); assay: Antimicrobial susceptibility testing, clinical isolate, broth microdilution; format: cell-based; conditions: Acinetobacter baumannii, inhibitor at 10 mg/L
Procedure: (§1) Clinical A. baumannii isolates containing ADC-33 or OXA-24/-40 in combination with various other well-defined β-lactamases were also tested against CR167 and 6b (Table 5).
(§2) The clinical A. baumannii isolates used to test the β-lactamase inhibitors were selected from a previously well-characterized collection in our lab. They were chosen as they had either ADC-33 and/or OXA-24 in combination with other known β-lactamases (for specific combinations, see Table 5).
(§3) Testing of susceptibility to standard antibiotics was performed with broth microdilution according to CLSI guidelines. MICs for CAZ, CTX, FEP, and IMI were determined using cation-adjusted Mueller–Hinton broth according to CLSI methods, and CR167 or 6b was used at a fixed concentration of 10 mg/L. All MICs were interpreted according to the 2022 Clinical and Laboratory Standards Institute (CLSI) guidelines.

[2] = test system: clinical A. baumannii isolate PR328 (OXA-23, OXA-82, ADC-33); assay: as above; format: cell-based; conditions: Acinetobacter baumannii
Procedure: as §1, §2, §3

[3] = test system: clinical A. baumannii isolate PR323 (OXA-24, OXA-65, ADC-218); assay: as above; format: cell-based; conditions: Acinetobacter baumannii
Procedure: as §1, §2, §3

[4] = test system: clinical A. baumannii isolate PR462 (OXA-24, OXA-65, ADC-214); assay: as above; format: cell-based; conditions: Acinetobacter baumannii, inhibitor at 10 mg/L
Procedure: as §1, §2, §3

[5] = target: ADC-7; set-up: method as in PMID 29144724; conditions: cited from earlier work
[6] = target: class C β-lactamase AmpC; set-up: method as in PMID 20945905, PMID 23043117; conditions: AmpC from E. coli; cited from earlier work
[7] = test system: E. coli DH10B pBCSK, blaADC-7; set-up: method as in PMID 29144724; conditions: with CR167; cited from earlier work
[8] = test system: KPC-2; set-up: method as in PMID 26729496; conditions: cited from earlier work
[9] = test system: SHV-1; conditions: cited from earlier work
[10] = inhibitor at 10 mg/L, PR328, read-out: MIC of CAZ with BLI
[11] = inhibitor at 10 mg/L, PR323, read-out: MIC of CAZ with BLI
[12] = inhibitor at 10 mg/L, PR323, read-out: MIC of CTX with BLI

SMILES	MIC ([1]; read-out: MIC of CAZ with BLI)	MIC ([1]; read-out: MIC of CTX with BLI)	MIC ([1]; read-out: MIC of IMI with BLI)	MIC ([2]; read-out: MIC of IMI with BLI)	MIC [2, 10]	MIC ([2]; inhibitor at 10 mg/L, PR328, read-out: MIC of CTX with BLI)	MIC ([3]; read-out: MIC of IMI with BLI)	MIC [3, 11]	MIC [3, 12]	MIC ([4]; read-out: MIC of CAZ with BLI)	MIC ([4]; read-out: MIC of CTX with BLI)	MIC ([4]; read-out: MIC of IMI with BLI)	MIC ([2]; read-out: MIC of CTX with BLI)	Ki [5]	Ki [6]	MIC for CAZ with CR167 [7]	IC50 [8]	IC50 [9]
C[C@@H](NS(=O)(=O)Cc1cccc(C(=O)O)c1)B(O)O [6b]	2050 µg/mL	512 µg/mL	64 µg/mL	128 µg/mL	2050 µg/mL	256 µg/mL	128 µg/mL	4100 µg/mL	2050 µg/mL	256 µg/mL	512 µg/mL	64 µg/mL	–	–	–	–	–	–
O=C(O)c1cccc(CS(=O)(=O)NCB(O)O)c1 [CR167]	1020 µg/mL	256 µg/mL	64 µg/mL	128 µg/mL	1020 µg/mL	–	128 µg/mL	4100 µg/mL	2050 µg/mL	64 µg/mL	256 µg/mL	64 µg/mL	128 µg/mL	160 nM	1.3 nM	1 µg/mL	200 nM	430 nM

Source: PMC10135033, “Sulfonamidoboronic Acids as “Cross-Class” Inhibitors of an Expanded-Spectrum Class C Cephalosporinase, ADC-33, and a Class D Carbapenemase, OXA-24/40: Strategic Compound Design to Combat Resistance in Acinetobacter baumannii” (Antibiotics, 2023)
